Two molecules from patent publication US9593305B2, “Differentiation of pluripotent stem cells” (Janssen Biotech, Inc., priority 2008, dated 2017) can be followed below.

Format in all cases: cell-based
Assay [1] relates to H1 human embryonic stem cells. The assay can be described thus: Single-cell monolayer assay with EGF/FGF4, serum free, no activin A (Example 10, Table 10). To be noted: No AA (with Wnt3a), FGF none. As for the experimental part:
Briefly, clusters of H1 human embryonic stem cells were grown on reduced growth factor […]™ (Invitrogen; Cat #356231)-coated tissue culture plastic. Cultures were treated with Accutase (Sigma; Cat #A6964), using equivalent volumes of […] surface area for 5 minutes at 37° C., then gently resuspended, pelleted by centrifugation, and resuspended in MEF conditioned medium for counting. For assay seeding, cells were plated at 50,000 cells/cm^2 on reduced growth factor […]™-coated 96-well black plates (Packard ViewPlates; Cat #6005182) using volumes of 100 μl/well. Cells were allowed to attach and recover log phase growth over a 3 to 5 day period, feeding daily with MEF conditioned medium supplemented with 8 ng/ml bFGF (R&D Systems; Cat #233-FB). Plates were maintained at 37° C., 5% CO2 in a humidified box throughout the duration of assay.
Stocks of EGF and FGF4 were prepared in a 96-well polypropylene plate (Corning, Inc.; Cat #3960). Compound 22 was available as a 5 mM stock solubilized in 100% DMSO (Sigma; Cat #D2650) and stored at −80° C. Assays were initiated by aspirating culture medium from each well followed by three washes in PBS to remove residual growth factors and serum. […]
On the second day of assay, wells were again aspirated and fed with 80 μl per well were added back containing RPMI 1640 base medium supplemented with 2.5% fatty acid free BSA, 10 ng/ml bFGF, and 3.125 μM Compound 22 plus 20 μl 5× stock of growth factors to yield a final concentration of 2% fatty acid free BSA, 8 ng/ml bFGF and 2.5 μM Compound 22 in assay. Positive control wells contained the same base medium supplemented with 2% fatty acid free BSA, 8 ng/ml bFGF and 100 ng/ml recombinant human activin A. Negative control samples contained the same base medium supplemented with 2% fatty acid free BSA and 8 ng/ml bFGF but omitted treatment with activin A.
(§1) At the conclusion of four-days of culture, assay plates were washed twice with PBS, fixed with 4% paraformaldehyde (Alexis Biochemical; Cat #ALX-350-011) at room temperature for 20 minutes, then washed three times with PBS and permeabilized with 0.5% Triton X-100 (Sigma; Cat #T8760-2) for 20 minutes at room temperature. Cells were washed again three times with PBS and blocked with 4% chicken serum (Invitrogen; Cat #16110082) in PBS for 30 minutes at room temperature. Primary antibody (goat anti-human SOX17; R&D Systems; cat #AF1924) was diluted 1:100 in 4% chicken serum and added to each well for one hour at room temperature. Alexa Fluor 488 conjugated secondary antibody (chicken anti-goat IgG; Molecular Probes; Cat #AZ1467) was diluted 1:200 in PBS and added to each sample well after washing three times with PBS. To counterstain nuclei, 4 μg/ml Hoechst 33342 (Invitrogen; Cat #H3570) was added for ten minutes at room temperature. Plates were washed once with PBS and left in 100 μl/well PBS for imaging.
(§2) Imaging was performed using an IN Cell Analyzer 1000 (GE Healthcare) utilizing the 51008bs dichroic for cells stained with Hoechst 33342 and Alexa Fluor 488. Exposure times were optimized from positive control wells and from untreated negative control wells stained with secondary antibody alone. Images from 15 fields per well were acquired to compensate for any cell loss during the bioassay and subsequent staining procedures. Measurements for total cell number and total SOX17 intensity were obtained from each well using IN Cell Developer Toolbox 1.7 (GE Healthcare) software. Segmentation for the nuclei was determined based on gray-scale levels (baseline range 100-300) and nuclear size. Averages and standard deviations were calculated for each replicate data set. Total SOX17 protein expression was reported as total intensity or integrated intensity, defined as total fluorescence of the cell multiplied by the area of the cell. Background was eliminated based on acceptance criteria of gray-scale ranges between 200 to 3500. […]

The subject of assay [2] is H1 human embryonic stem cells. The assay is described as follows: Secondary assay: compound combined with individual growth factors or small molecules, no activin A (Example 5, Table 4). To be noted: growth factor 50 ng/ml combined with 2.5 μM compound and Wnt3a, no activin A. As for the experimental part:
(§3) Clusters of H1 human embryonic stem cells were grown on reduced growth factor […]™ (Invitrogen; Cat #356231)-coated tissue culture plastic. Cells were passaged using collagenase (Invitrogen; Cat #Cat #17104-019) treatment and gentle scraping, washed to remove residual enzyme, and plated with even dispersal at a ratio of 1:1 (surface area) on reduced growth factor […]™-coated 96-well black plates (Packard ViewPlates; PerkinElmer; Cat #6005182) using volumes of 100 μl/well. Cells were allowed to attach as clusters and then recover log phase growth over a 1 to 3 day period, feeding daily with MEF conditioned medium supplemented with 8 ng/ml bFGF (R&D Systems; Cat #233-FB). Plates were maintained at 37° C., 5% CO2 in a humidified box throughout the duration of assay.
Other agents tested were purchased as follows: BMP-7 (Sigma; Cat #B1434), LY294002 (Cayman; Cat 70920), PD98059, U0126, U0124 (EMD Biosciences; Cat #453710), muscimol (Tocris; Cat #0289), biuculline (Tocris; Cat #0130), sodium butyrate (Sigma; Cat #B5887). All growth factors were solubilized in PBS with 0.1% BSA (Sigma; Cat #A7888) and stored frozen at −80° C. Small molecules were solubilized in 100% DMSO (Sigma; Cat #D2650) and stored frozen at −80° C. The compounds were available as 5 mM stocks in 96-well plate format, solubilized in 100% DMSO and stored at −80° C. The compounds of the present invention were further diluted to an intermediate concentration of 0.2 mM in 50 mM HEPES (Invitrogen; Cat #15630-080), 20% DMSO and stored at 4° C. All growth factors and inhibitors were prepared in a deep well, 96-well polypropylene plate, diluted to 5× intermediate stocks in DMEM:F12 base medium at the beginning of assay and stored at 4° C.
A secondary screening assay was conducted, testing in triplicate and feeding on alternate days over the four-day assay timeframe. Assays were initiated by aspirating culture medium from each well followed by three washes in PBS to remove residual growth factors and serum. Test volumes of 80 μl per well were added back containing DMEM:F12 base medium (Invitrogen; Cat #11330-032) supplemented with 0.625% FCS (HyClone; Cat #SH30070.03), 25 ng/ml Wnt3a (R&D Systems), and 3.125 μM compound plus 20 μl 5× stock of growth factor or small molecule to yield a final concentration of 0.5% FCS, 20 ng/ml Wnt3a, and 2.5 μM compound. […] Final assay concentrations of small molecules tested were as follows: muscimol (20 μM), PD98059 (1 μM), LY294002 (2.5 μM), 00124 (1 μM), U0126 (1 μM), sodium butyrate (0.5 mM). Positive control wells (100 μl/well) contained the same base medium supplemented with 0.5% FCS, 20 ng/ml Wnt3a and 100 ng/ml activin A. Negative control wells (100 μl/well) contained the same base medium with 0.5% FCS and 20 ng/ml Wnt3a, omitting activin A.
On day 3, wells were aspirated and fed with 80 μl DMEM:F12 base medium supplemented with 2.5% FCS (HyClone) and 3.125 μM cyclic aniline-pyridinotriazine compound plus 20 μl 5× stock of growth factors or small molecules per well to yield a final concentration of 2% FCS and 2.5 μM compound (omitting Wnt3a) and as denoted on day one for all remaining growth factors or small molecules. Positive control wells (100 μl/well) contained the same base medium supplemented with 2% FCS and 100 ng/ml activin A, omitting Wnt3a. Negative control wells (100 μl/well) contained the same base medium with 2% FCS, omitting both activin A and Wnt3a.
At the conclusion of four-days of culture, assay plates were washed twice with PBS, fixed with 4% paraformaldehyde (Alexis Biochemical; Cat #ALX-350-011) at room temperature for 20 minutes, then washed three times with PBS and permeabilized with 0.5% Triton X-100 (Sigma; Cat #T8760-2) for 20 minutes at room temperature. Cells were washed again three times with PBS and blocked with 4% chicken serum (Invitrogen; Cat #16110082) in PBS for 30 minutes at room temperature.

Assay [3] relates to H1 human embryonic stem cells. The assay can be described thus: Primary screening: definitive endoderm differentiation in the absence of activin A, cell number and SOX17 (Example 3). The settings on record: 2.5 μM compound, 20 ng/ml Wnt3a days 1-2, no activin A, four-day assay. As for the experimental part: as §3, with “Briefly, clusters” for “Clusters”, “#1356231)-coated” for “#356231)-coated”, “Cat” for “Cat #Cat”
The compounds tested were made available as 5 mM stocks in 96-well plate format, solubilized in 100% DMSO (Sigma; Cat #D2650) and stored at −80° C. The library compounds were further diluted to an intermediate concentration of 0.2 mM in 50 mM HEPES (Invitrogen; Cat #15630-080), 20% DMSO and stored at 4° C. Test conditions were performed in triplicate, feeding on alternate days over a four-day assay period. Primary screening assays were initiated by aspirating culture medium from each well followed by three washes in PBS (Invitrogen; Cat #14190) to remove residual growth factors and serum. On the first day of assay, test volumes of 200 μl per well were added back containing DMEM:F12 base medium (Invitrogen; Cat #11330-032) supplemented with 0.5% FCS (HyClone; Cat #SH30070.03) and 20 ng/ml Wnt3a (R&D Systems; Cat #1324-WN) plus 2.5 μM test compound. On the third day of assay, test volumes of 200 μl per well were added back containing DMEM:F12 base medium supplemented with 2% FCS plus 2.5 μM test compound, without Wnt3a. Positive control samples contained the same base medium supplemented with FCS, substituting 100 ng/ml recombinant human activin A (PeproTech; Cat #120-14) for the test compound throughout the four-day assay along with Wnt3a (20 ng/ml) added only on days 1 and 2. Negative control samples contained DMEM:F12 base medium supplemented with FCS, adding Wnt3a on days 1 and 2 but omitting activin A.
as §1, with “PBS (Invitrogen; Cat #14190),” for “PBS,”, “Cat” for “cat”, “counter stain” for “counterstain”
as §2, with “size.” for “size. Averages and standard deviations were calculated for each replicate data set. Total SOX17 protein expression was reported as total intensity or integrated intensity, defined as total fluorescence of the cell multiplied by the area of the cell. Background was eliminated based on acceptance criteria of gray-scale ranges between 200 to 3500.”

In the case of “EGF: growth factor purchased from R&D Systems”, in assay [1] (EGF(50 ng/ml)), the “Cell Number, % of positive control” value worked out at 43.85%; the “Cell Number, Average Total Cell Number” value worked out at 5558; the “Sox17 Expression, % of positive control” value came to 18.44%; the “Sox17 Expression, Average Total Intensity” value turned out to be 5.01E+07. For the same molecule, in assay [1] (EGF(100 ng/ml)), the “Cell Number, % of positive control” value was determined as 53.79%; the “Cell Number, Average Total Cell Number” value is 6818; the “Sox17 Expression, % of positive control” value came out at 23.62%; the “Sox17 Expression, Average Total Intensity” value is 6.42E+07. Moreover, the “increase in SOX17 expression (% of the activin A/Wnt3a control)” value in assay [2] is reported as 34%.
On to `CC(C)(C)OC(=O)NCCc1cccc(Nc2ncnc(-c3ccnc(C#CCO)c3)n2)c1` [Compound 3, 1,1-Dimethylethyl {2-[3-({4[2-(3-hydroxyprop-1-yn-1-yl)pyridin-4-yl]-1,3,5-triazin-2-yl}amino)phenyl]ethyl}carbamate], for which, in assay [3], the “Cell Number: % of positive control” value is listed as 133.82 % of positive control, the “Sox17 Expression: % of positive control” value is given as −0.73 % of positive control and the “Sox17 Expression: Average Total Intensity” value is −2.34E+06. Besides, the “Cell Number: Average Total Cell Number” value in assay [3] (positive control 100 ng/ml activin A + Wnt3a) stood at 14211.
